In ChEMBL document CHEMBL2094260, “Malaria Box Tuberculosis Screening Data”:
Values after ≈ are worked out from the molar mass of the structure shown.

Test system: not listed separately
Experiment: MMV: Cytotoxicity CRC and LD50 against HepG2
Assay type: toxicity, cell-based
Conditions: human, HepG2 cells; read-out: LD50 (the source's name)
In the case of `O=C(Nc1ccc(Cl)c(Cl)c1)Nc1ccc(Cl)c(Cl)c1`, the CC50 is reported as 6.5 µM.
For `Clc1ccc2c(N3CCCC3)ccnc2c1`, the CC50 was 34.9 µM.
For `Cc1cc(Nc2cccc(F)c2)nc(NCc2ccccc2)n1`, the CC50 was 7.18 µM.
`Clc1cc(Br)ccc1-c1ccc(CNCC2CCNCC2)o1` gave a CC50 of 1.78 µM.
Work on `C[n+]1c2ccccc2nc2ccc(NCCO)cc21` yielded a CC50 of 6.65 µM.
For `Brc1ccc(Nc2nc3ccccc3nc2Nc2ccc(Br)cc2)cc1`, the CC50 was 2.69 µM.
Work on `Nc1ccc(-c2nc3cc(Cc4ccc5[nH]c(-c6ccc(N)cc6)nc5c4)ccc3[nH]2)cc1` yielded a CC50 of 2.45 µM.
`COc1ccc(C2NCCc3c2[nH]c2ccccc32)cc1CN1CCN(c2ccc(F)cc2)CC1` (stereo not given) showed a CC50 of 2.28 µM.
With `OC(CNC1CCCCC1)Cn1c2ccccc2c2ccccc21` (stereo not given) the CC50 was 4.97 µM.
`Cc1cc(C)c2nc(N3CCC(C(=O)NCCCN4CCC(N5CCCCC5)CC4)CC3)sc2c1` gave a CC50 of 2.55 µM.
For `CCn1nc(-c2ccc(C(=O)OC)cc2)nc2c(=O)n(C)c(=O)nc1-2`, the CC50 was 1.36 µM.
Work on `CCCCOC(=O)c1ccc(Nc2cc(C)nc3ccc(OC)cc23)cc1` yielded a CC50 of 6.93 µM.
Work on `CC(C)(C)CC(C)(C)NCC(O)COc1ccc(Cl)cc1Cl` (stereo not given) yielded a CC50 of 3.51 µM.
`Cc1cc(Nc2ccc(OCc3ccccc3)cc2)nc2cc(O)ccc12` gave a CC50 of 8.16 µM.
`O=C1c2ccc3c4c(ccc(c24)C(=O)N1CCCCO)C(=O)N(CCCCO)C3=O` showed a CC50 of 0.904 µM.

Test system: Mycobacterium tuberculosis
Experiment: MMV: CRC and MIC90 against Mtb (non replicating)
Assay type: functional
Conditions: not given
For `O=C(Nc1ccc(Cl)c(Cl)c1)Nc1ccc(Cl)c(Cl)c1`, the MIC90 was 10.3 µM (≈ 3.61 µg/mL).
Work on `Clc1ccc2c(N3CCCC3)ccnc2c1` yielded an MIC90 greater than 100 µM.
Molecule `Cc1cc(Nc2cccc(F)c2)nc(NCc2ccccc2)n1` has an MIC90 greater than 100 µM.
With `Clc1cc(Br)ccc1-c1ccc(CNCC2CCNCC2)o1` the MIC90 was greater than 100 µM.
Work on `C[n+]1c2ccccc2nc2ccc(NCCO)cc21` yielded an MIC90 greater than 100 µM.
In the case of `Brc1ccc(Nc2nc3ccccc3nc2Nc2ccc(Br)cc2)cc1`, the MIC90 is reported as 11.5 µM (≈ 5.41 µg/mL).
In the case of `Nc1ccc(-c2nc3cc(Cc4ccc5[nH]c(-c6ccc(N)cc6)nc5c4)ccc3[nH]2)cc1`, the MIC90 is reported as greater than 100 µM.
`COc1ccc(C2NCCc3c2[nH]c2ccccc32)cc1CN1CCN(c2ccc(F)cc2)CC1` (stereo not given) showed an MIC90 greater than 100 µM.
`OC(CNC1CCCCC1)Cn1c2ccccc2c2ccccc21` (stereo not given) showed an MIC90 greater than 100 µM.
Molecule `Cc1cc(C)c2nc(N3CCC(C(=O)NCCCN4CCC(N5CCCCC5)CC4)CC3)sc2c1` has an MIC90 greater than 100 µM.
`CCn1nc(-c2ccc(C(=O)OC)cc2)nc2c(=O)n(C)c(=O)nc1-2` gave an MIC90 of 33.6 µM (≈ 11.5 µg/mL).
`CCCCOC(=O)c1ccc(Nc2cc(C)nc3ccc(OC)cc23)cc1` gave an MIC90 greater than 100 µM.
`CC(C)(C)CC(C)(C)NCC(O)COc1ccc(Cl)cc1Cl` (stereo not given) showed an MIC90 of 40.2 µM (≈ 14 µg/mL).
`Cc1cc(Nc2ccc(OCc3ccccc3)cc2)nc2cc(O)ccc12` gave an MIC90 of 50 µM (≈ 17.8 µg/mL).
Molecule `O=C1c2ccc3c4c(ccc(c24)C(=O)N1CCCCO)C(=O)N(CCCCO)C3=O` has an MIC90 of 79.1 µM (≈ 32.5 µg/mL).

Test system: Mycobacterium tuberculosis
Experiment: MMV: Screen against Mtb, single point, non replicating, at 25uM
Assay type: functional
Conditions: not given
`O=C(Nc1ccc(Cl)c(Cl)c1)Nc1ccc(Cl)c(Cl)c1` gave an inhibition at 25 µM of 99.8%.
With `Clc1ccc2c(N3CCCC3)ccnc2c1` the inhibition at 25 µM was 17.1%.
`Cc1cc(Nc2cccc(F)c2)nc(NCc2ccccc2)n1` showed an inhibition at 25 µM of 5.92%.
With `Clc1cc(Br)ccc1-c1ccc(CNCC2CCNCC2)o1` the inhibition at 25 µM was 34.2%.
Molecule `C[n+]1c2ccccc2nc2ccc(NCCO)cc21` has an inhibition at 25 µM of 37.7%.
`Brc1ccc(Nc2nc3ccccc3nc2Nc2ccc(Br)cc2)cc1` showed an inhibition at 25 µM of 100%.
Work on `Nc1ccc(-c2nc3cc(Cc4ccc5[nH]c(-c6ccc(N)cc6)nc5c4)ccc3[nH]2)cc1` yielded an inhibition at 25 µM of 41.4%.
With `COc1ccc(C2NCCc3c2[nH]c2ccccc32)cc1CN1CCN(c2ccc(F)cc2)CC1` (stereo not given) the inhibition at 25 µM was 15.9%.
With `OC(CNC1CCCCC1)Cn1c2ccccc2c2ccccc21` (stereo not given) the inhibition at 25 µM was 14%.
`Cc1cc(C)c2nc(N3CCC(C(=O)NCCCN4CCC(N5CCCCC5)CC4)CC3)sc2c1` gave an inhibition at 25 µM of 15.2%.
In the case of `CCn1nc(-c2ccc(C(=O)OC)cc2)nc2c(=O)n(C)c(=O)nc1-2`, the inhibition at 25 µM is reported as 65.1%.
For `CCCCOC(=O)c1ccc(Nc2cc(C)nc3ccc(OC)cc23)cc1`, the inhibition at 25 µM was 24.7%.
`CC(C)(C)CC(C)(C)NCC(O)COc1ccc(Cl)cc1Cl` (stereo not given) showed an inhibition at 25 µM of 30.2%.
Molecule `Cc1cc(Nc2ccc(OCc3ccccc3)cc2)nc2cc(O)ccc12` has an inhibition at 25 µM of 10%.
`O=C1c2ccc3c4c(ccc(c24)C(=O)N1CCCCO)C(=O)N(CCCCO)C3=O` gave an inhibition at 25 µM of 39.6%.

Test system: Mycobacterium tuberculosis
Experiment: MMV: Screen against Mtb, single point, replicating, at 25uM
Assay type: functional
Conditions: not given
Work on `O=C(Nc1ccc(Cl)c(Cl)c1)Nc1ccc(Cl)c(Cl)c1` yielded an inhibition at 25 µM of 92.6%.
In the case of `Clc1ccc2c(N3CCCC3)ccnc2c1`, the inhibition at 25 µM is reported as 68.8%.
In the case of `Cc1cc(Nc2cccc(F)c2)nc(NCc2ccccc2)n1`, the inhibition at 25 µM is reported as 98.3%.
`Clc1cc(Br)ccc1-c1ccc(CNCC2CCNCC2)o1` showed an inhibition at 25 µM of 86.5%.
`C[n+]1c2ccccc2nc2ccc(NCCO)cc21` gave an inhibition at 25 µM of 84.9%.
With `Brc1ccc(Nc2nc3ccccc3nc2Nc2ccc(Br)cc2)cc1` the inhibition at 25 µM was 101%.
`Nc1ccc(-c2nc3cc(Cc4ccc5[nH]c(-c6ccc(N)cc6)nc5c4)ccc3[nH]2)cc1` showed an inhibition at 25 µM of 94%.
Work on `COc1ccc(C2NCCc3c2[nH]c2ccccc32)cc1CN1CCN(c2ccc(F)cc2)CC1` (stereo not given) yielded an inhibition at 25 µM of 87.9%.
In the case of `OC(CNC1CCCCC1)Cn1c2ccccc2c2ccccc21` (stereo not given), the inhibition at 25 µM is reported as 66.6%.
Molecule `Cc1cc(C)c2nc(N3CCC(C(=O)NCCCN4CCC(N5CCCCC5)CC4)CC3)sc2c1` has an inhibition at 25 µM of 60.2%.
Work on `CCn1nc(-c2ccc(C(=O)OC)cc2)nc2c(=O)n(C)c(=O)nc1-2` yielded an inhibition at 25 µM of 55.9%.
Molecule `CCCCOC(=O)c1ccc(Nc2cc(C)nc3ccc(OC)cc23)cc1` has an inhibition at 25 µM of 96.5%.
With `CC(C)(C)CC(C)(C)NCC(O)COc1ccc(Cl)cc1Cl` (stereo not given) the inhibition at 25 µM was 98.5%.
`Cc1cc(Nc2ccc(OCc3ccccc3)cc2)nc2cc(O)ccc12` showed an inhibition at 25 µM of 99.8%.
With `O=C1c2ccc3c4c(ccc(c24)C(=O)N1CCCCO)C(=O)N(CCCCO)C3=O` the inhibition at 25 µM was 89.3%.

Test system: Mycobacterium tuberculosis
Experiment: MMV: CRC and MIC90 against Mtb (replicating)
Assay type: functional
Conditions: not given
Molecule `O=C(Nc1ccc(Cl)c(Cl)c1)Nc1ccc(Cl)c(Cl)c1` has an MIC90 of 3.89 µM (≈ 1.36 µg/mL).
With `Clc1ccc2c(N3CCCC3)ccnc2c1` the MIC90 was greater than 100 µM.
Molecule `Cc1cc(Nc2cccc(F)c2)nc(NCc2ccccc2)n1` has an MIC90 of 16.4 µM (≈ 5.06 µg/mL).
In the case of `Clc1cc(Br)ccc1-c1ccc(CNCC2CCNCC2)o1`, the MIC90 is reported as 29.3 µM (≈ 11.2 µg/mL).
For `C[n+]1c2ccccc2nc2ccc(NCCO)cc21`, the MIC90 was 6 µM.
In the case of `Brc1ccc(Nc2nc3ccccc3nc2Nc2ccc(Br)cc2)cc1`, the MIC90 is reported as 3.73 µM (≈ 1.75 µg/mL).
`Nc1ccc(-c2nc3cc(Cc4ccc5[nH]c(-c6ccc(N)cc6)nc5c4)ccc3[nH]2)cc1` showed an MIC90 of 10.9 µM (≈ 4.69 µg/mL).
`COc1ccc(C2NCCc3c2[nH]c2ccccc32)cc1CN1CCN(c2ccc(F)cc2)CC1` (stereo not given) gave an MIC90 of 25.9 µM (≈ 12.2 µg/mL).
Molecule `OC(CNC1CCCCC1)Cn1c2ccccc2c2ccccc21` (stereo not given) has an MIC90 of 55.9 µM (≈ 18 µg/mL).
For `Cc1cc(C)c2nc(N3CCC(C(=O)NCCCN4CCC(N5CCCCC5)CC4)CC3)sc2c1`, the MIC90 was 60.8 µM (≈ 30.3 µg/mL).
For `CCn1nc(-c2ccc(C(=O)OC)cc2)nc2c(=O)n(C)c(=O)nc1-2`, the MIC90 was greater than 100 µM.
In the case of `CCCCOC(=O)c1ccc(Nc2cc(C)nc3ccc(OC)cc23)cc1`, the MIC90 is reported as 94.9 µM (≈ 34.6 µg/mL).
In the case of `CC(C)(C)CC(C)(C)NCC(O)COc1ccc(Cl)cc1Cl` (stereo not given), the MIC90 is reported as 4.47 µM (≈ 1.56 µg/mL).
`Cc1cc(Nc2ccc(OCc3ccccc3)cc2)nc2cc(O)ccc12` gave an MIC90 of 19.9 µM (≈ 7.09 µg/mL).
For `O=C1c2ccc3c4c(ccc(c24)C(=O)N1CCCCO)C(=O)N(CCCCO)C3=O`, the MIC90 was 36.5 µM (≈ 15 µg/mL).
